From patent publication US20150224211A1, “LEUKOCYTES AS DELIVERY CELLS FOR IMAGING AND DISEASE THERAPY” (priority 2012, published 2015)
Entries after “also recorded” stand apart in the source; their conditions may differ.

Key:
[1] = tested on: 4T1 mouse mammary carcinoma cells; experiment: In situ photodynamic therapy (ALA plus luminol) of mouse mammary tumors; assay type: in vivo; conditions: ALA 100 mg/kg IP prior to luminol 250 mg/kg IP; treatment repeated; four days after PDT
Protocol: 1×10^5 4T1 mouse mammary carcinoma cells (ATCC) were transplanted into a mammary fat pad of a mouse. Four, six, eight and ten days after transplant, luminol (Sigma-Aldrich) was administered intrapertioneally (IP)(250 mg/kg) and the mouse was imaged on an IVIS Lumina imaging apparatus. For in situ photodynamic therapy, the sensitizer alpha aminolevulinic acid (ALA), which is a precursor to protoporphyrin IX (a clinically used photosensitizer), was administered IP (100 mg/kg,) prior to luminol administration. […] Adjunct treatments designed to enhance the PDT effect included the administration of the TGF-β inhibitor LY34947 (1 mg/kg, IP), streptokinase (800 units/mouse, IV), or a combination of LY34947 and streptokinase.

[2] = tested on: Fusobacterium necrophorum subsp. necrophorum strain 8L1; experiment: Efficacy study in mouse model of liver abscesses; assay type: in vivo, BALB/c mice; conditions: 60 μg CHX in 1.3×10^6 neutrophils
Protocol: In an efficacy study that followed, Fusobacterium necrophorum subsp. necrophorum strain 8L1 was grown overnight from a single colony in PRAS-BHI. 0.3 ml of the starter culture was added to 10 ml of fresh PRAS-BHI broth and grown to an O.D.600 of 0.7. 1 ml of this culture was diluted 1:40 to achieve a final concentration of approximately 4·10^6 CFU/ml. 400 μl of the diluted bacteria was injected intraperitonially into 10 week old BALB/c mice.
Ten-week old BALB/c mice were randomly assigned into 6 groups with 9 mice per group. On day zero, all mice were infected intraperitonially with an infectious dose (approximately 1×10^7 CFU) of F. necrophorum. On day 3, mice were injected (via tail vein) with 100 μl PBS (control), unmodified neutrophils, neutrophils carrying microparticles (an average of 20 cells of M. luteus loaded with chlorhexidine), or neutrophils containing unmodified, heat deactivated M. luteus. The animals were monitored for clinical signs for 5 days after treatment and were euthanized if any clinical signs developed. The mice were euthanized 5 days post treatment and all mice were examined post mortem for abscesses in the livers. Livers of the mice were weighed and homogenized in a tissue homogenizer for 1 min in modified lactate (ML) broth. […]

Row | Structure (SMILES) | tumor response determined by imaging with luciferin [1] | effect against the hepatic disease caused by F. necrophorum [2]
1 | NCC(=O)CCC(=O)O [ALA, 5-aminolevulinic acid] | can attenuate tumors; also recorded: dramatic regression of the tumors | –
2 | [H]/N=C(\N/C(=N/[H])NCCCCCCNC(=N)NC(=N)Nc1ccc(Cl)cc1)Nc1ccc(Cl)cc1 [CHX, chlorhexidine gluconate] | – | effective
